Positions of bridges follow the written chain, without caps; N, C: chain ends. Non-standard residues stand in square brackets, D forms with d. Residues, ends and D or L forms follow the SMILES beside them. NMeC = CN[C@@H](CS)C(=O)O; NMeA = CN[C@@H](C)C(=O)O; dAbu = CC[C@@H](N)C(=O)O; dNMeA = CN[C@H](C)C(=O)O; Abu = CC[C@H](N)C(=O)O; Nleu = CC(C)CNCC(=O)O; NEtG = CCNCC(=O)O

A short description of this data set: in vitro. To be noted: PAMPA, pH 7.4, PAMPA Pe_avg. For orientation: PAMPA measures passive passage across an artificial lipid membrane.
Experimental: Passive permeabilities of the 36 compounds were measured in multiplex as mixtures of six compounds each using the parallel artificial membrane permeability assay (PAMPA).[44]−[46]
Protocol is identical for both mixture and pure compound analysis.
Two of the following: Carbamazepine (CBZ), propranolol (Prop), and 1NMe35 were
included as internal standards and prepared as DMSO stocks at a concentration of 2 000 µM.
assay was carried out with a 96-well donor plate with 0.45 μ hydrophobic Immobilon-P membrane supports
(Millipore MAIPNTR10) and a 96-well Teflon acceptor plate (Millipore MSSACCEPTOR).
protocol then proceeded as follows:
Donor well solutions were prepared to a volume of 1 000 µL with the analytes as a solution in 1X
PBS pH 7.4 and 5% DMSO. To a 3 mL Eppendorf tube was added 950 µL of 1X PBS pH 7.4, 40
The solutions were vortexed and set aside.
Analyte – 10 µM per compound
A 1% solution of soy lecithin in dodecane was freshly prepared in a 3 mL Eppendorf tube and
sonicated (5 min) to ensure full dissolution of the lecithin. The donor membrane plate was turned
upside down and bottom of the membranes exposed. 5 µL of the 1% soy lecithin solution in
dodecane was then placed on the bottom of the membrane, allowing the drop to spread across the
full area of the membrane. Any membranes with visible damage were not used in the assay.
membranes were allowed to equilibrate for 5 min before loading.
Each well within the Teflon block acceptor plate that was to be used in the assay was then loaded
with 300 µL of 1X PBS pH 7.4 and 5% DMSO.
Working without break, 150 µL of each donor well solution was transferred from the to the 96-well
donor plate. Each mixture of interest was r un in quadruplicate, using a new well for each replicate.
As soon as the 96-well donor plate was finished being loaded, it was gently placed into the 96-well
Teflon acceptor plate, taking care not to trap any air bubbles beneath the membrane.
The donor/acceptor plates were covered gently with the lid to minimize evaporation and transferred
gently as a system to a sealed chamber and left to sit overnight at room temperature. The chamber
was kept from drying by placing a wet paper towel within to prevent evaporation.
After ~19-20 hours the donor plate was removed from the acceptor plate.
50 µL of each well (donor and acceptor) were transferred to a 96 -well plate and diluted with 50 µL
of methanol prior to heat sealing and quantification by UPLC -MS.
`CCOC(=O)[C@@H]1CSCC(=O)N[C@H](CC)C(=O)N(C)[C@@H](C)C(=O)N[C@H](CC(C)C)C(=O)N2CCC[C@@H]2C(=O)N(CC)CC(=O)N[C@H](CC(C)C)C(=O)N(C)[C@H](C)C(=O)N[C@@H](CC(C)C)C(=O)N1C` [JF206_ADD_DDDD_Ethyl] ({CH2CO}-[dAbu][NMeA][dL][dP][NEtG][dL][dNMeA]L[NMeC]-OEt; thioether N-9) came in with an apparent permeability (Papp) at 10 µM of 0.16 ×10⁻⁶ cm/s. On to `CCOC(=O)[C@@H]1CSCC(=O)N[C@H](CC)C(=O)N(C)[C@@H](C)C(=O)N[C@H](CC(C)C)C(=O)N2CCC[C@@H]2C(=O)N(CC)CC(=O)N[C@H](CC(C)C)C(=O)N(C)[C@@H](C)C(=O)N[C@@H](CC(C)C)C(=O)N1C` [JF206_ADD_DDDL_Ethyl] ({CH2CO}-[dAbu][NMeA][dL][dP][NEtG][dL][NMeA]L[NMeC]-OEt; thioether N-9), for which the Papp at 10 µM worked out at 0.162 ×10⁻⁶ cm/s. `CCOC(=O)[C@@H]1CSCC(=O)N[C@H](CC)C(=O)N(C)[C@@H](C)C(=O)N[C@H](CC(C)C)C(=O)N2CCC[C@@H]2C(=O)N(CC)CC(=O)N[C@@H](CC(C)C)C(=O)N(C)[C@H](C)C(=O)N[C@@H](CC(C)C)C(=O)N1C` [JF206_ADD_DDLD_Ethyl] ({CH2CO}-[dAbu][NMeA][dL][dP][NEtG]L[dNMeA]L[NMeC]-OEt; thioether N-9) yielded a Papp at 10 µM of 0.005 ×10⁻⁶ cm/s. As for `CCOC(=O)[C@@H]1CSCC(=O)N[C@H](CC)C(=O)N(C)[C@@H](C)C(=O)N[C@H](CC(C)C)C(=O)N2CCC[C@@H]2C(=O)N(CC(C)C)CC(=O)N[C@@H](CC(C)C)C(=O)N(C)[C@H](C)C(=O)N[C@@H](CC(C)C)C(=O)N1C` [JF206_ADD_DDLD_Isobutyl] ({CH2CO}-[dAbu][NMeA][dL][dP][Nleu]L[dNMeA]L[NMeC]-OEt; thioether N-9), the figure is 0.125 ×10⁻⁶ cm/s; as for `CCOC(=O)[C@@H]1CSCC(=O)N[C@H](CC)C(=O)N(C)[C@@H](C)C(=O)N[C@@H](CC(C)C)C(=O)N2CCC[C@@H]2C(=O)N(CC(C)C)CC(=O)N[C@H](CC(C)C)C(=O)N(C)[C@H](C)C(=O)N[C@@H](CC(C)C)C(=O)N1C` [JF206_ADD_DLDD_Isobutyl] ({CH2CO}-[dAbu][NMeA]L[dP][Nleu][dL][dNMeA]L[NMeC]-OEt; thioether N-9), 0.118 ×10⁻⁶ cm/s; as for `CCOC(=O)[C@@H]1CSCC(=O)N[C@H](CC)C(=O)N(C)[C@@H](C)C(=O)N[C@@H](CC(C)C)C(=O)N2CCC[C@@H]2C(=O)N(CC)CC(=O)N[C@H](CC(C)C)C(=O)N(C)[C@@H](C)C(=O)N[C@@H](CC(C)C)C(=O)N1C` [JF206_ADD_DLDL_Ethyl] ({CH2CO}-[dAbu][NMeA]L[dP][NEtG][dL][NMeA]L[NMeC]-OEt; thioether N-9), 0.003 ×10⁻⁶ cm/s.

The compound `CCOC(=O)[C@@H]1CSCC(=O)N[C@H](CC)C(=O)N(C)[C@@H](C)C(=O)N[C@@H](CC(C)C)C(=O)N2CCC[C@@H]2C(=O)N(CC(C)C)CC(=O)N[C@H](CC(C)C)C(=O)N(C)[C@@H](C)C(=O)N[C@@H](CC(C)C)C(=O)N1C` [JF206_ADD_DLDL_Isobutyl] ({CH2CO}-[dAbu][NMeA]L[dP][Nleu][dL][NMeA]L[NMeC]-OEt; thioether N-9) had a Papp at 10 µM of 0.173 ×10⁻⁶ cm/s. `CCOC(=O)[C@@H]1CSCC(=O)N[C@H](CC)C(=O)N(C)[C@@H](C)C(=O)N[C@@H](CC(C)C)C(=O)N2CCC[C@@H]2C(=O)N(CC)CC(=O)N[C@@H](CC(C)C)C(=O)N(C)[C@H](C)C(=O)N[C@@H](CC(C)C)C(=O)N1C` [JF206_ADD_DLLD_Ethyl] ({CH2CO}-[dAbu][NMeA]L[dP][NEtG]L[dNMeA]L[NMeC]-OEt; thioether N-9) showed a Papp at 10 µM of 0.174 ×10⁻⁶ cm/s.

`CCOC(=O)[C@@H]1CSCC(=O)N[C@H](CC)C(=O)N(C)[C@@H](C)C(=O)N[C@@H](CC(C)C)C(=O)N2CCC[C@@H]2C(=O)N(CC)CC(=O)N[C@@H](CC(C)C)C(=O)N(C)[C@@H](C)C(=O)N[C@@H](CC(C)C)C(=O)N1C` [JF206_ADD_DLLL_Ethyl] ({CH2CO}-[dAbu][NMeA]L[dP][NEtG]L[NMeA]L[NMeC]-OEt; thioether N-9) displayed a Papp at 10 µM of 0.561 ×10⁻⁶ cm/s.

In turn, `CCOC(=O)[C@@H]1CSCC(=O)N[C@H](CC)C(=O)N(C)[C@@H](C)C(=O)N[C@@H](CC(C)C)C(=O)N2CCC[C@@H]2C(=O)N(CC(C)C)CC(=O)N[C@@H](CC(C)C)C(=O)N(C)[C@@H](C)C(=O)N[C@@H](CC(C)C)C(=O)N1C` [JF206_ADD_DLLL_Isobutyl] ({CH2CO}-[dAbu][NMeA]L[dP][Nleu]L[NMeA]L[NMeC]-OEt; thioether N-9) yielded a Papp at 10 µM of 0.688 ×10⁻⁶ cm/s. As for `CCOC(=O)[C@@H]1CSCC(=O)N[C@@H](CC)C(=O)N(C)[C@@H](C)C(=O)N[C@H](CC(C)C)C(=O)N2CCC[C@@H]2C(=O)N(CC)CC(=O)N[C@H](CC(C)C)C(=O)N(C)[C@H](C)C(=O)N[C@@H](CC(C)C)C(=O)N1C` [JF206_ADL_LDDD_Ethyl] ({CH2CO}-[Abu][NMeA][dL][dP][NEtG][dL][dNMeA]L[NMeC]-OEt; thioether N-9), the figure is 0.177 ×10⁻⁶ cm/s; as for `CCOC(=O)[C@@H]1CSCC(=O)N[C@@H](CC)C(=O)N(C)[C@@H](C)C(=O)N[C@H](CC(C)C)C(=O)N2CCC[C@@H]2C(=O)N(CC)CC(=O)N[C@H](CC(C)C)C(=O)N(C)[C@@H](C)C(=O)N[C@@H](CC(C)C)C(=O)N1C` [JF206_ADL_LDDL_Ethyl] ({CH2CO}-[Abu][NMeA][dL][dP][NEtG][dL][NMeA]L[NMeC]-OEt; thioether N-9), 0.315 ×10⁻⁶ cm/s. As for `CCOC(=O)[C@@H]1CSCC(=O)N[C@@H](CC)C(=O)N(C)[C@@H](C)C(=O)N[C@H](CC(C)C)C(=O)N2CCC[C@@H]2C(=O)N(CC)CC(=O)N[C@@H](CC(C)C)C(=O)N(C)[C@@H](C)C(=O)N[C@@H](CC(C)C)C(=O)N1C` [JF206_ADL_LDLL_Ethyl] ({CH2CO}-[Abu][NMeA][dL][dP][NEtG]L[NMeA]L[NMeC]-OEt; thioether N-9), the Papp at 10 µM stood at 0.013 ×10⁻⁶ cm/s. As for `CCOC(=O)[C@@H]1CSCC(=O)N[C@@H](CC)C(=O)N(C)[C@@H](C)C(=O)N[C@@H](CC(C)C)C(=O)N2CCC[C@@H]2C(=O)N(CC)CC(=O)N[C@H](CC(C)C)C(=O)N(C)[C@H](C)C(=O)N[C@@H](CC(C)C)C(=O)N1C` [JF206_ADL_LLDD_Ethyl] ({CH2CO}-[Abu][NMeA]L[dP][NEtG][dL][dNMeA]L[NMeC]-OEt; thioether N-9), the figure is 0.018 ×10⁻⁶ cm/s; as for `CCOC(=O)[C@@H]1CSCC(=O)N[C@@H](CC)C(=O)N(C)[C@@H](C)C(=O)N[C@@H](CC(C)C)C(=O)N2CCC[C@@H]2C(=O)N(CC(C)C)CC(=O)N[C@H](CC(C)C)C(=O)N(C)[C@H](C)C(=O)N[C@@H](CC(C)C)C(=O)N1C` [JF206_ADL_LLDD_Isobutyl] ({CH2CO}-[Abu][NMeA]L[dP][Nleu][dL][dNMeA]L[NMeC]-OEt; thioether N-9), 0.286 ×10⁻⁶ cm/s. Then `CCOC(=O)[C@@H]1CSCC(=O)N[C@@H](CC)C(=O)N(C)[C@@H](C)C(=O)N[C@@H](CC(C)C)C(=O)N2CCC[C@@H]2C(=O)N(CC)CC(=O)N[C@H](CC(C)C)C(=O)N(C)[C@@H](C)C(=O)N[C@@H](CC(C)C)C(=O)N1C` [JF206_ADL_LLDL_Ethyl] ({CH2CO}-[Abu][NMeA]L[dP][NEtG][dL][NMeA]L[NMeC]-OEt; thioether N-9), with 0.011 ×10⁻⁶ cm/s. Turning to `CCOC(=O)[C@@H]1CSCC(=O)N[C@@H](CC)C(=O)N(C)[C@@H](C)C(=O)N[C@@H](CC(C)C)C(=O)N2CCC[C@@H]2C(=O)N(CC(C)C)CC(=O)N[C@H](CC(C)C)C(=O)N(C)[C@@H](C)C(=O)N[C@@H](CC(C)C)C(=O)N1C` [JF206_ADL_LLDL_Isobutyl] ({CH2CO}-[Abu][NMeA]L[dP][Nleu][dL][NMeA]L[NMeC]-OEt; thioether N-9), the Papp at 10 µM is 0.229 ×10⁻⁶ cm/s.

The Papp is the rate of passage across a membrane or cell layer, normalised by area and donor concentration.

These data come from publication PMC10885153, “Membrane Permeability in a Large Macrocyclic Peptide Driven by a Saddle-Shaped Conformation” (Journal of the American Chemical Society, 2024).
